Some test systems named below: SW-620 colon; OVCAR-5 ovarian; SR leukemia; SNB-19 CNS; SK-MEL-5 melanoma; HCT-15 colon; UACC-62 melanoma; K-562 leukemia; UO-31 renal; 786-0 renal.
Holding throughout (experiment): inhibition of tumour cell growth, NCI panel, 48 h

SMILES strings stand for the structures.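 These data come from cells grown in 96-well plates and exposed to compound for 48 hours at five concentrations. GI50 is the concentration that inhibits growth by half. TGI marks complete inhibition of growth.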

As to `O=C(COC(=O)c1cccc2c(=O)c3ccccc3[nH]c12)Nc1ccc(S(=O)(=O)Nc2ncccn2)cc1`, the TGI in the experiment on SW-620 colon is > 100 µM; with OVCAR-5 ovarian it was > 100 µM; in the experiment with SR leukemia, 91 µM; in the experiment on SNB-19 CNS, 93.2 µM; in the experiment with SK-MEL-5 melanoma it was > 100 µM; with HCT-15 colon, > 100 µM. Further, the TGI with UACC-62 melanoma was 39.7 µM; in the experiment with K-562 leukemia it was 90.7 µM; with UO-31 renal, > 100 µM; with 786-0 renal it was > 100 µM.

With `Nc1nc(CC2(O)CCCCC2)cc(-c2ccccc2)n1`, the TGI is 65 µM in the experiment with SW-620 colon; 54.4 µM in the experiment with OVCAR-5 ovarian; 49.6 µM with SR leukemia; > 100 µM in the experiment on SNB-19 CNS; > 57.4 µM in the experiment with SK-MEL-5 melanoma; > 75.5 µM with HCT-15 colon. Also, the TGI with UACC-62 melanoma is > 100 µM; in the experiment with K-562 leukemia it was > 100 µM; in the experiment with UO-31 renal, > 91.6 µM; in the experiment on 786-0 renal, 43.2 µM.

Turning to `O=S(=O)(NCCNc1cc(-c2cn(-c3ccccc3)nc2-c2cccc(O)c2)ccn1)c1ccc(Br)cc1`, the GI50 is 3.04 µM in the experiment with SW-620 colon; 2.25 µM with OVCAR-5 ovarian; 1.97 µM with SR leukemia; 2.89 µM in the experiment with SNB-19 CNS; 1.64 µM in the experiment with SK-MEL-5 melanoma; 1.8 µM in the experiment on HCT-15 colon. The GI50 in the experiment on UACC-62 melanoma was 1.81 µM; in the experiment with K-562 leukemia it was 1.98 µM; in the experiment with UO-31 renal, 2.19 µM; with 786-0 renal, 2.17 µM. For the same molecule, the TGI was found to be 9.68 µM in the experiment on SW-620 colon; 5.97 µM with OVCAR-5 ovarian; 5.58 µM in the experiment with SR leukemia; 11.1 µM in the experiment with SNB-19 CNS; 3.03 µM in the experiment with SK-MEL-5 melanoma; 4.39 µM in the experiment on HCT-15 colon. In addition, the TGI in the experiment with UACC-62 melanoma was found to be 3.87 µM; in the experiment with K-562 leukemia, 5.49 µM; in the experiment on UO-31 renal, 6.96 µM; in the experiment on 786-0 renal it was 7.78 µM.

On to `CN1CCN(Cc2ccc(NC(=O)c3cccc(C#Cc4c(N)ncc5ccc(F)cc45)c3)cc2C(F)(F)F)CC1`, for which the GI50 in the experiment with SW-620 colon was 0.645 µM; with OVCAR-5 ovarian, 0.849 µM; in the experiment on SR leukemia, 1.02 µM; in the experiment on SNB-19 CNS it was 0.916 µM; in the experiment with SK-MEL-5 melanoma it was 0.896 µM; in the experiment on HCT-15 colon, 0.621 µM. The GI50 with UACC-62 melanoma is 0.698 µM; in the experiment with K-562 leukemia it was 0.005 µM; in the experiment with UO-31 renal, 0.533 µM; with 786-0 renal it was 0.966 µM. Also, the TGI in the experiment on SW-620 colon is 1.39 µM; in the experiment with OVCAR-5 ovarian, 1.76 µM; with SR leukemia it was 2.71 µM; in the experiment with SNB-19 CNS, 1.65 µM; with SK-MEL-5 melanoma, 1.68 µM; in the experiment on HCT-15 colon, 1.41 µM. The TGI in the experiment with UACC-62 melanoma was 1.4 µM; in the experiment on K-562 leukemia it was 0.674 µM; in the experiment with UO-31 renal, 1.27 µM; in the experiment on 786-0 renal it was 1.74 µM.

For `CNC(=S)N(C1CCCCC1)C1CCCCC1`, the TGI in the experiment with SW-620 colon, with OVCAR-5 ovarian, in the experiment on SR leukemia, in the experiment on SNB-19 CNS, with SK-MEL-5 melanoma and in the experiment with HCT-15 colon was > 100 µM each time. Moreover, the TGI in the experiment on UACC-62 melanoma, in the experiment on K-562 leukemia, in the experiment on UO-31 renal and with 786-0 renal was > 100 µM in each case.

With `CC(=O)OC1(C#N)CC2OC1C1N=NN(C(=O)OC(C)(C)C)C21` (stereo not given), the TGI in the experiment with SW-620 colon is 23.1 µM; with OVCAR-5 ovarian it was > 100 µM; in the experiment on SR leukemia it was 57.8 µM; in the experiment with SNB-19 CNS, > 100 µM; with SK-MEL-5 melanoma it was > 31.6 µM; in the experiment on HCT-15 colon, 22.5 µM. The TGI is 42.2 µM in the experiment with UACC-62 melanoma, > 100 µM in the experiment with K-562 leukemia, > 100 µM in the experiment on UO-31 renal and > 100 µM in the experiment with 786-0 renal.

Consider `COc1cc2c(cc1OC)-c1ncc3cc(OC)c(OC)c(OC)c3c1C2`, for which the GI50 is 38.7 µM in the experiment on SW-620 colon; 57.3 µM in the experiment with OVCAR-5 ovarian; 11 µM with SR leukemia; 79.9 µM in the experiment on SNB-19 CNS; 1.68 µM in the experiment on SK-MEL-5 melanoma; 35.4 µM in the experiment on HCT-15 colon. Besides, the GI50 with UACC-62 melanoma is 7.42 µM; in the experiment on K-562 leukemia, 3.89 µM; in the experiment with UO-31 renal, 5.49 µM; with 786-0 renal it was 40 µM. The TGI with SW-620 colon is > 100 µM; in the experiment with OVCAR-5 ovarian it was > 100 µM; with SR leukemia it was 39.8 µM; in the experiment with SNB-19 CNS it was > 100 µM; in the experiment on SK-MEL-5 melanoma, 3.05 µM; in the experiment with HCT-15 colon, > 100 µM. The TGI with UACC-62 melanoma is 26.8 µM; in the experiment with K-562 leukemia it was 48.6 µM; in the experiment on UO-31 renal it was 53.6 µM; with 786-0 renal, > 100 µM.

As to `CC(C)C1NC(=O)[C@H](C)OC(=O)[C@@H](C(C)C)NC(=O)[C@@H](C)OC(=O)C(C(C)C)NC(=O)[C@H](C)OC1=O` (stereo not given in full), the TGI was > 51.7 µM in the experiment with SW-620 colon; > 100 µM in the experiment with OVCAR-5 ovarian; 72.9 µM with SR leukemia; > 100 µM with SNB-19 CNS; > 100 µM in the experiment with SK-MEL-5 melanoma; 34.2 µM with HCT-15 colon. The TGI is > 100 µM with UACC-62 melanoma, > 59.3 µM with K-562 leukemia, > 100 µM in the experiment with UO-31 renal and 47.2 µM in the experiment on 786-0 renal.

Turning to `COCC(=O)NC/C=C/c1ccc2ncnc(Nc3ccc(Oc4ccc(C)nc4)c(C)c3)c2c1`, the GI50 is 17.4 µM in the experiment with SW-620 colon; 12.7 µM in the experiment with OVCAR-5 ovarian; 10.7 µM in the experiment on SR leukemia; 18.4 µM with SNB-19 CNS; 3.26 µM in the experiment on SK-MEL-5 melanoma; 9.36 µM with HCT-15 colon. Besides, the GI50 is 10.6 µM with UACC-62 melanoma, 17.8 µM in the experiment with K-562 leukemia, 7.8 µM with UO-31 renal and 15.1 µM with 786-0 renal. Also, the TGI in the experiment with SW-620 colon is 40.9 µM; in the experiment with OVCAR-5 ovarian, 35.9 µM; with SR leukemia, 50.4 µM; in the experiment on SNB-19 CNS, > 100 µM; in the experiment with SK-MEL-5 melanoma it was 13 µM; in the experiment with HCT-15 colon, 74.2 µM. Further, the TGI in the experiment with UACC-62 melanoma was 34 µM; in the experiment with K-562 leukemia, > 91.4 µM; with UO-31 renal, 35.9 µM; in the experiment on 786-0 renal, 42 µM.

As to `Clc1nc(-c2ccccc2)nc(Cl)c1Cl`, the TGI in the experiment on SW-620 colon was 15.1 µM; in the experiment on OVCAR-5 ovarian, 30.4 µM; in the experiment with SR leukemia, 7.53 µM; with SNB-19 CNS, > 54.2 µM; with SK-MEL-5 melanoma, 26.7 µM; with HCT-15 colon, 21.2 µM. Also, the TGI in the experiment on UACC-62 melanoma was 27.8 µM; with K-562 leukemia, > 43.2 µM; in the experiment on UO-31 renal, > 57.5 µM; in the experiment with 786-0 renal it was 22.8 µM.

The values above are taken from PubChem BioAssay (NCI).
